≈ marks a conversion by molar mass, not a printed value.
Test system: Staphylococcus aureus
Assay: Antimicrobial activity against Staphylococcus aureus 2171 by broth microdilution method
Assay type: functional

SMILES | MIC
CC1(C)S[C@@H]2[C@H](NC(=O)[C@H](N)c3ccccc3)C(=O)N2[C@H]1C(=O)O [AMPICILLIN] | 4 µg/mL (≈ 11.4 µM)
CCC[C@@H]1C[C@@H](C(=O)N[C@@H]([C@H]2O[C@H](SC)[C@H](O)[C@@H](O)[C@H]2O)[C@H](C)Cl)N(C)C1 [CLINDAMYCIN] | ≥ 128 µg/mL
CCN1CCN(c2cc3c(cc2F)c(=O)c(C(=O)O)cn3C2CC2)CC1 [ENROFLOXACIN] | 8 µg/mL (≈ 22.3 µM)
CC[C@H]1OC(=O)[C@H](C)[C@@H](O[C@H]2C[C@@](C)(OC)[C@@H](O)[C@H](C)O2)[C@H](C)[C@@H](O[C@@H]2O[C@H](C)C[C@H](N(C)C)[C@H]2O)[C@](C)(O)C[C@@H](C)C(=O)[C@H](C)[C@@H](O)[C@]1(C)O [ERYTHROMYCIN] | ≥ 64 µg/mL
Cc1onc(-c2ccccc2)c1C(=O)N[C@@H]1C(=O)N2[C@@H]1SC(C)(C)[C@@H]2C(=O)O [OXACILLIN] | 0.5 µg/mL (≈ 1.25 µM)
CC1(C)S[C@@H]2[C@H](NC(=O)Cc3ccccc3)C(=O)N2[C@H]1C(=O)O [PENICILLIN G] | 8 µg/mL (≈ 23.9 µM)
CN(C)[C@@H]1C(O)=C(C(N)=O)C(=O)[C@@]2(O)C(O)=C3C(=O)c4c(O)cccc4[C@@](C)(O)[C@H]3C[C@@H]12 [TETRACYCLINE] | 32 µg/mL (≈ 72 µM)
COc1cc(Cc2cnc(N)nc2N)cc(OC)c1OC [TRIMETHOPRIM] | ≥ 128 µg/mL
